Like-named read-outs stand apart in the source and are kept apart here. Some results are limits rather than exact numbers.

For this test, the target named is T1, 6HIS-Tev-LRRK2 (1326-2527) (Homo sapiens, UniProt Q5S007).
T1 construct: A LRRK2 cDNA encoding residues 1326-2527 was received from Dundee University; made in house; host or cells: Spodoptera frugiperda Sf9 (baculovirus, pFB-HTb)
T1 sequence (Q5S007 1326-2527): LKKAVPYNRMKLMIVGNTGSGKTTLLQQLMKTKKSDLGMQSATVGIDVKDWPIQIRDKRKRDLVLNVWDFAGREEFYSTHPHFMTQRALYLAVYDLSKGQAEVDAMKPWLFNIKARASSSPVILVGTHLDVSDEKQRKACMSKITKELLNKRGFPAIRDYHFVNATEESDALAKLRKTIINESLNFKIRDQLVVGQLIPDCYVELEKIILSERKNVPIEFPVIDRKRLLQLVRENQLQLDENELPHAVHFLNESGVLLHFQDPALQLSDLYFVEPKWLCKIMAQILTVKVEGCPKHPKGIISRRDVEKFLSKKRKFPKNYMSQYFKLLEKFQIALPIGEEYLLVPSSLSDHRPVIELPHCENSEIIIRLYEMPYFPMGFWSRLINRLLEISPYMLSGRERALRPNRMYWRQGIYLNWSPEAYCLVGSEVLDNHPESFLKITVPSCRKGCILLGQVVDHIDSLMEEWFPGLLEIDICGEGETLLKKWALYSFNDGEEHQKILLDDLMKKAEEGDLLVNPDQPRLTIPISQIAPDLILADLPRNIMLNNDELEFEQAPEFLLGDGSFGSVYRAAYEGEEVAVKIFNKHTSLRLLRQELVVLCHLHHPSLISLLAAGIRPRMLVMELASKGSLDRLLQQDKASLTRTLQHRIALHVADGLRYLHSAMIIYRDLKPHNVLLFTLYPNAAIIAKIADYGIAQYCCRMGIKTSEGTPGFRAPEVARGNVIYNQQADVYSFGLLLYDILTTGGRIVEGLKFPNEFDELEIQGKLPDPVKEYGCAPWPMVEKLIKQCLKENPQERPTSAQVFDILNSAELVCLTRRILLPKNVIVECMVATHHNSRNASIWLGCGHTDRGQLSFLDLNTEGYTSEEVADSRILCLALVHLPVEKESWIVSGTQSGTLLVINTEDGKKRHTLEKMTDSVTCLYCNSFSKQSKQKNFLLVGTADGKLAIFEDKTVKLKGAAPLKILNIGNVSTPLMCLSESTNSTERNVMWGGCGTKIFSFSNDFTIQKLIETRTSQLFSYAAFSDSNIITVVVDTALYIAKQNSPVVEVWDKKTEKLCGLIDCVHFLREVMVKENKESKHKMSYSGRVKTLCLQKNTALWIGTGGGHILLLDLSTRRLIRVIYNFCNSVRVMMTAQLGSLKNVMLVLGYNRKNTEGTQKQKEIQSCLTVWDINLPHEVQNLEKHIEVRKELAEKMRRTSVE
Kind of test: Recombinant LRRK2 enzyme peptide substrate TR-FRET assay. Conditions: 60 nM LRRK2 enzyme, 10 uM ATP. It is filed as biochemical. The procedure: A LRRK2 cDNA encoding residues 1326-2527 was received from Dundee University (described in M. Jaleel et al., 2007, Biochem J, 405: 407-417). This gene fragment was subcloned into pFB-HTb (Invitrogen) using BamHI and NotI restriction sites. The LRRK2 plasmid was recombined into the baculovirus genome according to the BAC-to-BAC protocol described by Invitrogen. Transfection into Spodoptera frugiperda (Sf9) insect cells was performed using Cellfectin (Invitrogen), according to the manufacturer's protocol to generate P1 and P2 baculovirus stocks.
Sf9 cells were grown in HyClone SFX (Thermo Scientific) growth media at 27° C., 80 rpm in shake flask until of a sufficient volume to inoculate a bioreactor. The cells were grown in a 20 liter working volume Wave bioreactor (GE Healthcare) at 27° C., 50% dissolved oxygen and an agitation rate 22 rocks per minute, 10 degree rock angle, 200 ml/min air with a cell concentration of approximately 6×e6 cells/ml. The cells were infected with P2 Baculovirus at a multiplicity of infection (MOI) of 3. The cultivation was continued for a 48 hour expression phase. The infected cells were removed from the growth media by centrifugation at 2500 g using a Sorvall RC 3C Plus centrifuge at 2500 g for 20 minutes. The cell pellet was immediately frozen and subsequently supplied for purification.
A 260 g pellet was allowed to thaw in a water bath at 27° C. with 800 ml lysis buffer/buffer A (50 mm Tris-HCl pH 8.5, 300 mM NaCl, 1 mm DTT, 10% glycerol, 1 ml/L calbiochem complete protease inhibitor cocktail and benzonase (50 ul/800 ml)) before being dounce homogenised on ice using 20 strokes per 100 ml. The suspension was packed in ice and sonicated at 50% amplitude for 3 min 10 sec on/off using a ¾″ probe. The suspension was then centrifuged at 100,000 g for 90 min, at 4° C.
The lysate (700 ml) was decanted from the insoluble pellet and contacted for 3 h at 4 C with 10 ml His bind Ni NTA resin by end over end mixing. The resin was recovered by centrifugation, 3000 g, 5 min at 4 C, and packed in an XK16 column. The column was then washed with 10 column volumes buffer A, 10 column volumes buffer B (buffer A+1M NaCl) and 10 column volumes buffer C (buffer A+20 mM imidazole). The column was then eluted with 15 column volumes buffer D (buffer A+300 mM imidazole) collecting 2 ml fractions. All washes and elution were conducted at 4 ml/min.
Fractions identified by SDS-PAGE as containing protein of interest were pooled and loaded directly onto a 320 ml SEC Superdex 200 pg column that was pre-equilibrated with buffer E (50 mM Tris-HCl pH 8.5, 300 mM NaCl, 10% glycerol, 1 mM DTT). The column was loaded and eluted with 1.2 column volumes buffer E at 2 ml/min collecting 2 ml fractions. Fractions identified by SDS-PAGE as containing protein of interest were tested for activity.
Production of Biotin-Loner LRRKtide
The peptide (biotin-[…]-OH) was assembled at a […] scale using FMOC solid phase peptide synthesis on an ACT 357 MPS automated peptide synthesizer. The resulting crude peptide was cleaved from the resin using a 95:2.5:2.5 mix of trifluoroacetic acid: triisopropylsilane: water. The crude cleaved peptide was purified by reverse phase HPLC, eluting with a 5-35% gradient of 0.1% trifluoroacetic acid/acetonitrile in 0.1% trifluoroacetic acid/water.
Recombinant LRRK2 Enzyme Peptide Substrate TR-FRET Assay
This assay for LRRK2 inhibition is based on the detection of phosphorylation of the peptide ‘longer LRRKtide’ (biotin-[…]-OH) using a time resolved-fluorescence resonance energy transfer (TR-FRET) assay. It uses an antibody labelled europium chelate donor, W-1024 (Eu) and Streptavidin-Surelight APC acceptor (APC). When in close proximity, the excitation of Eu at 330 nm leads to energy transfer to APC with emission of light at 665 nm,
Assay Protocol • 1. A 10 mM test compound was dissolved in 100% DMSO and serially diluted 1 in 4. […]
A general note: TR-FRET usually uses a lanthanide donor and a delayed reading to cut background.

The mark [1] stands for this setting: read-out: pIC50 in the recombinant LRRK2 enzyme peptide substrate TR-FRET assay (converted).
[2] abbreviates: 1 uM Biotin-longer LRRKtide, read-out: recombinant LRRK2 enzyme peptide substrate TR-FRET assay (pIC50) (converted).

`CCOc1nc(Nc2cnn(C3CCCC3(C)O)c2C)nc2[nH]ccc12` (racemic) [Example E70, Trans-2-(4-((4-ethoxy-7H-pyrrolo-[2,3-d]pyrimidin-2-yl)amino)-5-methyl-1H-pyrazol-1-yl)-1-methylcyclopentanol]: the IC50 under setting [1] is no more than 100 nM.

Take `CCOc1nc(Nc2cnn(C3CCN(C)C3)c2C)nc2[nH]ccc12` (single isomer, unassigned) [Example E14, 4-ethoxy-N-(5-methyl-1-(1-methylpyrrolidin-3-yl)-1H-pyrazol-4-yl)-7H-pyrrolo-[2,3-d]-pyrimidin-2-amine]: under setting [2], the IC50 was 12.6 nM.

As for `CCOc1nc(Nc2cnn(C3CCN(C4COC4)C3)c2C)nc2[nH]ccc12` (single isomer, unassigned) [Example E67, 4-ethoxy-N-(5-methyl-1-(1-(oxetan-3-yl)-pyrrolidin-3-yl)-1H-pyrazol-4-yl)-7H-pyrrolo-[2,3-d]pyrimidin-2-amine], the IC50 under setting [1] was no more than 100 nM.

As to `CCOc1nc(Nc2cnn(CC(C)(C)O)c2C)nc2[nH]ccc12` [Example E3, 1-(4-((4-ethoxy-7H-pyrrolo-[2,3-d]pyrimidin-2-yl)amino)-5-methyl-1H-pyrazol-1-yl)-2-methylpropan-2-ol], the IC50 under setting [2] is 12.6 nM.

With `CCOc1nc(Nc2cnn(CCOC)c2Cl)nc2[nH]ccc12` [Example E21, N-(5-chloro-1-(2-methoxyethyl)-1H-pyrazol-4-yl)-4-ethoxy-7H-pyrrolo-[2,3-d]-pyrimidin-2-amine], the IC50 under setting [1] was no more than 100 nM.

In the case of `CCOc1nc(Nc2cnn(C3CCOCC3)c2C2CC2)nc2[nH]ccc12` [Example E44, N-(5-cyclopropyl-1-(tetrahydro-2H-pyran-4-yl)-1H-pyrazol-4-yl)-4-ethoxy-7H-pyrrolo-[2,3-d]pyrimidin-2-amine], the IC50 under setting [2] was 7.94 nM.

On to `CCOc1nc(Nc2cnn(CCN3CCOCC3)c2C)nc2[nH]ccc12` [Example E45, 4-ethoxy-N-(5-methyl-1-(2-morpholinoethyl)-1H-pyrazol-4-yl)-7H-pyrrolo-[2,3-d]pyrimidin-2-amine], for which the IC50 under setting [2] was 10 nM.

For the compound `CCOc1nc(Nc2cnn(C3CC(O)C3)c2C)nc2[nH]ccc12` (stereo not shown) [Example E52, 3-(4-((4-ethoxy-7H-pyrrolo-[2,3-d]-pyrimidin-2-yl)-amino)-5-methyl-1H-pyrazol-1-yl)cyclo-butanol], under setting [2], the IC50 is 7.94 nM.

As to “cis-3-(4-((4-ethoxy-7H-pyrrolo[2,3-d]pyrimidin-2-yl)amino)-5-methyl-1H-pyrazol-1-yl)cyclopentanol [Example E56]”, the “recombinant LRRK2 enzyme peptide substrate TR-FRET assay (pIC50)” value (1 uM Biotin-longer LRRKtide) was 8.1.

Take “trans-2-(4-((4-ethoxy-7H-pyrrolo-[2,3-d]pyrimidin-2-yl)amino)-5-methyl-1H-pyrazol-1-yl)-cyclopentanol [Example E40]”: the “recombinant LRRK2 enzyme peptide substrate TR-FRET assay (pIC50)” value (1 uM Biotin-longer LRRKtide) was found to be 8.3.

Regarding “trans-2-(4-((4-ethoxy-7H-pyrrolo-[2,3-d]pyrimidin-2-yl)amino)-5-methyl-1H-pyrazol-1-yl)-cyclopentanol [Example E41]”, under “1 uM Biotin-longer LRRKtide”, the “recombinant LRRK2 enzyme peptide substrate TR-FRET assay (pIC50)” value was determined as 8.

As to “trans-2-(5-chloro-4-((4-ethoxy-7H-pyrrolo-[2,3-d]-pyrimidin-2-yl)amino)-1H-pyrazol-1-yl)-cyclopentanol [Example E37]”, the “recombinant LRRK2 enzyme peptide substrate TR-FRET assay (pIC50)” value (1 uM Biotin-longer LRRKtide) worked out at 9.

Consider “trans-2-(5-chloro-4-((4-ethoxy-7H-pyrrolo-[2,3-d]-pyrimidin-2-yl)amino)-1H-pyrazol-1-yl)cyclopentanol [Example E38]”, for which, under “1 uM Biotin-longer LRRKtide”, the “recombinant LRRK2 enzyme peptide substrate TR-FRET assay (pIC50)” value is given as 9.1.

Source of the values: patent US10618901B2 (GlaxoSmithKline Intellectual Property Development Limited, priority 2014, dated 2020).
